A short description of data set [1]: Solubility in distilled water. The format is physicochemical. Conditions: distilled water at 25° C. An excerpt:
(§1) The product is removed from the internal mixer and passed through the cooled rolls of a 3×8 inch roller mill to form a 0.8 mm thick film, with portions of the film compression molded between heated plattens of a hydraulic press to form 0.4 mm thick film. The film is cooled, and elliptical ocular shaped devices are punched from the dry film.

Data set [2] in a line: Osmotic pressure of the solute (vapor pressure osmometer). The format is physicochemical.
From the text: The osmotic pressure, ATM, of the solute can be measured in a commercially available osmometer that measures the vapor pressure difference between pure water and a solution containing a solute to be analyzed, and according to standard thermodynamic principles, the vapor pressure ratio is converted into an osmotic pressure. An osmometer that can be used for the present measurements is the Model 302B, Vapor Pressure Osmometer, manufactured by the Hewlett Packark Company, Avondale, Pennsylvania.
as §1

Data set [3] concerns intraocular pressure associated with glaucoma. Conditions: liquid eyedrops; cited from earlier work.

The solubility is the dissolved amount per volume that the medium holds.

For `COCCc1ccc(OCC(O)CNC(C)C)cc1.O=C(O)C(O)C(O)C(=O)O` (racemic) [(±)-1-[4-(2-methoxyethyl)-phenoxy]-3-[(1-methylethyl)amino]-2-propanol tartrate], the solubility in data set [1] turned out to be 860 mg/mL. This compound returned an osmotic pressure in data set [2] of 210 atm.

In the case of `CC(C)(C)NC[C@H](O)COc1nsnc1N1CCOCC1` [timolol], the “lowering of intraocular pressure” value in data set [3] is reported as “lowering intraocular pressure associated with glaucoma”.
